Measured values as given in patent US9709558B2, “Compound arrays for sample profiling” (priority 2009, dated 2017).

Key:
[1] = system: influenza A/PR/8/34; format: in vivo, BALB/c mice; settings: lethal challenge with influenza A/PR/8/34
[2] = system: KLH; assay: Anti-KLH serum IgG ELISA in immunized mice; format: in vivo; settings: archived murine serum samples
[3] = system: whole virus; assay: Serum IgG ELISA against whole virus in immunized mice; format: in vivo; settings: archived murine serum samples

keyhole limpet hemocyanin [KLH] was tested, and the “outcome following lethal challenge” value [1] was “no benefit over naives”, the “average anti-KLH IgG titer” value [2] was 819,000 and the “average IgG titer against whole virus” value [3] was 800.
